Here are results for 2 compounds from US9914760B2, “Methods of identifying, isolating and using odorant and aroma receptors” (Firmenich SA, priority 2013, dated 2018).

Experiment [1] has as its system olfactory sensory neurons. Description: Ca2+ imaging of dissociated olfactory sensory neurons (Fura-2). Type of experiment: cell-based, mouse. As to conditions: 50 μM each; 6 independent neurons (FIG. 2). An excerpt:
The olfactory epithelium containing native olfactory neurons from a mouse was isolated and dissociated into single cells and then transferred to a dissociation buffer for a gentle mechanical and enzymatic dissociation. In order to optimize the dissociation protocol, the general procedure for making fresh dissociation buffer was followed as set forth in Araneda et al. (2004), A Pharmacological Profile of the Aldehyde Receptor Repertoire in Rat Olfactory Epithelium. Journal of Physiology: 555:743-756 with the following modifications: DNAse I instead of DNAse II, Ca2+ concentration elevated to 5 mM and pH adjusted at 7.35 at 32°. Dissociated neurons were then seeded on a coverslip allowing the screening of >2,500 cells by fluorescence microscopy. The cells were then loaded with a calcium sensitive dye (Fura-2 AM) for 30 minutes at 31° C. and transferred onto a microscope ready for screening. […]
Olfactory neurons that responded to indole and skatole were identified by stimulating receptors with 50 μm indole followed by 50 μm skatole and monitoring the intracellular Ca2+ flux indicated by changes in Fura-2 fluorescence. […] Average Fluorescence Intensity, relative fluorescent unit as a result of a ratiometric 340/380 nm recordings.

Another experiment has as its target Olfr743 (Mus musculus, UniProt L7N1Y2). Kind of experiment: cell-based cAMP assay (HTRF), HEK293T co-transfected with Gαolf. The following applies: for receptor activity (cAMP, HTRF): increasing concentrations, FIGS. 5A-5D. An excerpt: The activity of candidate mouse receptors Olfr740 (SEQ ID NO: 1 and SEQ ID NO: 2), Olfr743 (SEQ ID NO: 5 and SEQ ID NO: 6), and Olfr746 (SEQ ID NO: 37 and SEQ ID NO: 38) to both indole and skatole malodors were confirmed in cell-based cAMP assays. In FIGS. 5A and 5B, FLAG Rho-tagged (SEQ ID 18) Olfr743 (SEQ ID NO: 6) and Olfr740 (SEQ ID NO: 2) cDNA sequences were co-transfected with Gαolf (SEQ ID NO: 21) and exposed to increasing concentrations of indole (left) or skatole (right). FIGS. 5C and 5D are repeat experiments showing similar activity of Olfr740 (SEQ ID NO: 2) with Olfr743 (SEQ ID NO: 6) with indole and skatole. In FIG. 5E, the FLAG Rho-tagged (SEQ ID 18) Olfr746 (SEQ ID NO: 38) cDNA sequence was co-transfected with Gαolf (SEQ ID NO: 21) and exposed to increasing concentrations of indole or skatole. Odorant-induced activity was detected by measuring cAMP levels in the cytosol using the HTRF approach (CisBio kit). […] Co-transfection of HEK cells with Gαolf (SEQ ID NO: 21) alone (no receptor) were used as controls for non-specific activity (control). Activity is defined as the baseline corrected HTRF ratios normalized to the highest signal in the experiment. […] All three receptors show specific dose dependent activity to the malodor compounds and, as such, validate the process for identifying receptors for these compounds. Mouse receptors Olfr740 (SEQ ID NO: 1 and SEQ ID NO: 2) and Olfr743 (SEQ ID NO: 5 and SEQ ID NO: 6) were identified from isolated olfactory neurons that responded to both indole and skatole. Mouse receptor Olfr746 (SEQ ID NO: 37 and SEQ ID NO: 38) was identified in silico by database mining using Olfr740 (SEQ ID NO: 2) and Olfr743 (SEQ ID NO: 6) as query sequences. The receptors are modified at their N-terminus with the FLAG tag and the first 20 amino acids of the bovine rhodopsin receptor (SEQ ID 18), transiently expressed in HEK 293T cells, and stimulated separately with indole and skatole to confirm their identity as bona fide indole/skatole receptors. Co-expression of the human G alpha subunit Gαolf (SEQ ID NO: 21) activates the Gs transduction pathway that leads to an internal cAMP increase upon binding to the appropriate ligand.
Once identified using the procedure outlined herein, the resulting malodor receptor cell lines can be used to screen chemical libraries for compounds that modulate their activity and possibly human perception. This experiment was performed under the same conditions as in Example 4. Cells transfected with Rho-tagged (SEQ ID NO: 18) Olfr743 (SEQ ID NO: 6) were exposed to increasing concentrations of indole in the presence or absence of 300 μM 2-actetonaphthone. […] In the presence of the antagonist compound, a rightward shift of in the dose-response curve is observed resulting in a 4 fold increase in the EC50 to indole. Activity is defined as the baseline corrected HTRF ratios normalized to the highest signal in the experiment.

Olfr743, sequence (P38405 2-381): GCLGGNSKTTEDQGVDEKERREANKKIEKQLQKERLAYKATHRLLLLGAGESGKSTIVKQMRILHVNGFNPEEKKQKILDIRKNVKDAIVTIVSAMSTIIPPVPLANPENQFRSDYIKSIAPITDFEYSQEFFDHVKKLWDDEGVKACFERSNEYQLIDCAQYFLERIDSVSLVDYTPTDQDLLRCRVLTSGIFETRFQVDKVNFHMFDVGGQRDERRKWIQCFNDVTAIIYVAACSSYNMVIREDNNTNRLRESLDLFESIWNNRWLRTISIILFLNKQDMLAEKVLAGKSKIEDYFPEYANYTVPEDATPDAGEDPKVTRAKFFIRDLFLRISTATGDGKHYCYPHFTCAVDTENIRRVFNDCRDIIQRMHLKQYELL
Olfr743, sequence (L7N1Y2 entry or part of it): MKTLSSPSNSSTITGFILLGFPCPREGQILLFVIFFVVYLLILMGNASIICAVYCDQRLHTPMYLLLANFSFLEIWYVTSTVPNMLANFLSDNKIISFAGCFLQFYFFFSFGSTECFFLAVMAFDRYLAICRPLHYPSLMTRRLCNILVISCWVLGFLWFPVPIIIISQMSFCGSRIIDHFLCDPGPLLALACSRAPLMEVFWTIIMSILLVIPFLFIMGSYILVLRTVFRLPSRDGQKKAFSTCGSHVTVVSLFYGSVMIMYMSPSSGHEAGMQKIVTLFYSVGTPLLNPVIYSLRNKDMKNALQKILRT

A word on the EC50: it is the concentration that produces a half-maximal response. Turning to `c1ccc2[nH]ccc2c1` [indole], the “activation of olfactory sensory neurons (intracellular Ca2+ flux, Fura-2 fluorescence)” value in experiment [1] is “activated”. For the same compound, the EC50 at Olfr743 (EC50, indole alone, absence of 2-acetonaphthone) worked out at 54 µM; on Olfr743 (EC50, indole in the presence of 300 μM 2-acetonaphthone), 206 µM. The “receptor activity (cAMP, HTRF)” value at Olfr743 is “dose-dependent increase of receptor activity”.

Turning to `Cc1c[nH]c2ccccc12` [skatole, 3-methyl indole], in experiment [1], the “activation of olfactory sensory neurons (intracellular Ca2+ flux, Fura-2 fluorescence)” value is given as “activated”. On Olfr743, the “receptor activity (cAMP, HTRF)” value is given as “dose-dependent increase of receptor activity”.
